Measured values as given in patent publication US4298734A, “Diazaheterocyclopurines and triazolopyrimidines” (Mead Johnson & Company, priority 1979, dated 1981).

Key:
[1] = tested on: passive cutaneous anaphylaxis reaction (PCA) in the rat; test: Passive cutaneous anaphylaxis reaction (PCA) in the rat; format: in vivo; parameters: key to PCA, inactive at dose: I: inactive at the specified dose; conditions: for inhibition in vivo at 50 mg/kg: oral dose 50 mg./kg.; for ED50 / PCA, ED50: oral
Method: Antiallergy activity in terms of ability to inhibit the immediate hypersensitivity reaction was measured by means of the passive cutaneous anaphylaxis reaction (PCA) in the rat (Table XI, column 7). The animals were passively sensitized by the intradermal injection of rat reagenic antiserum at various locations on the shaved back skin and 48 hours later the test drug was administered. This was followed by challenge at a predetermined interval, usually 15 minutes, by intravenous injection of egg albumin and Evans' blue dye. The dermal reaction at the sensitized site was evaluated and scored by measuring the diameter of the spot generated at the sensitized intradermal injection site. The values reported in the table are either ED50 values for the test compound in terms of mg./kg. of body weight administered orally, or percent inhibition of the dose specified in parentheses.

[2] = tested on: methacholine-induced bronchospasm in the rat; test: Methacholine-induced bronchospasm (pulmonary ventilation pressure) in anesthetized rat; format: in vivo; conditions: intraduodenal; for inhibition in vivo at 10 mg/kg: read-out: Methacholine Bronchospasm, percent inhibition; for Methacholine Bronchospasm, ED50 / ED50: 50% inhibition of bronchospasm; for Methacholine Bronchospasm, percent inhibition: dose 30 mg./kg.; for inhibition in vivo at 10 mg/kg / Methacholine Bronchospasm, inactive at dose: dose 10 mg./kg.
Text: Brochodilator activity in vivo (Table XI, column 6) was estimated by determining the dose of test compound required to inhibit methacholine-induced brochospasm in the rat. […] For this test, pulmonary ventilation pressure (PVP) was the parameter measured using anesthetized animals.

[3] = Anticholinergic action mediating bronchodilator activity
[4] = tested on: rats actively sensitized with egg albumin and B. pertussis vaccine; test: Allergic bronchospasm in rats actively sensitized with egg albumin; format: in vivo; conditions: rat, oral, egg albumin challenge, PVP; for ED50: Bordetella pertussis
Method: Antiallergy/bronchodilator studies (Table XI, column 8) were also conducted using rats which were actively sensitized with egg albumin and B. pertussis vaccine as for preparation of the reagenic antisera in the PCA test. Fifteen days following sensitization, the animals were prepared for measurement of PVP as for the methacholine-induced bronchospasm test, and changes in PVP in response to a standardized challenge of egg albumin following treatment with test drug were measured. The values reported in the table are ED50 values in terms of mg./kg. of body weight for the test compound administered orally.

[5] = Anti-allergy and bronchodilator action compared with aminophylline
[6] = Maximum non-toxic dose in mice; conditions: mouse, in vivo, po; per os in mice
Text: Compounds of Formula I and Formula II are useful as bronchodilators, antiallergy agents in the inhibition of the immediate hypersensitivity reaction, as vasodilators, and as inhibitors of the enzyme phosphodiesterase. The invention includes processes for the treatment of mammals requiring bronchodilation, vasodilation, or having allergy with a non-toxic bronchodilator effective, vasodilator effective, or immediate hypersensitivity reaction inhibiting dose of one of these compounds. The compounds may be administered orally, parenterally, topically by inhalation, or rectally. Effective doses range from about 0.03 mg./kg. of body weight up to the maximum non-toxic dose which can be administered without undue side effects. Maximum non-toxic doses can be determined by standard pharmacologic techniques using mice. The value for the substance of Procedure 3 or 4, a preferred compound for anti-asthma use, is about 250 mg./kg. of body weight per os in mice.

[7] = oral dose 25 mg./kg., read-out: PCA, percent inhibition
[8] = read-out: PCA, percent inhibition
[9] = oral dose 10 mg./kg., read-out: PCA, percent inhibition

CC(C)C(=O)N1C2=NCCN2C(=O)c2[nH]c(C(C)C)nc21 [Procedure 20]
inhibition in vivo at 25 mg/kg [1, 7]: 46%

CCc1nc2c([nH]1)C(=O)N1CCN=C1N2Cc1ccc(Cl)cc1 [Procedure 14]
inhibition in vivo at 10 mg/kg [2]: 26%
inhibition in vivo at 50 mg/kg [1, 8]: 29%

CC(C)c1nc2c([nH]1)C(=O)N1CCN=C1N2Cc1ccccc1Cl [Procedure 16]
PCA, inactive at dose ([1]; oral dose 25 mg./kg.): I

Cn1cnc2c1C(=O)N1CCN=C1N2Cc1ccc(Cl)cc1 [Procedure 67]
Methacholine Bronchospasm, ED50 [2]: 8.8 mg/kg
PCA, percent inhibition ([1]; oral dose 25 mg./kg.): 26%

O=C1c2[nH]cnc2N(CCOc2ccccc2)C2=NCCN12 [Procedure 12]
ED50 [2]: 2.3 mg/kg
anticholinergic action [3]: anticholinergic action of a type which mediates improved bronchodilator activity
inhibition in vivo at 25 mg/kg [1, 7]: 27%

Cc1nc2c([nH]1)C(=O)N1CCN=C1N2CCOc1ccccc1 [Procedure 58]
ED50 [2]: 0.81 mg/kg
anticholinergic action [3]: anticholinergic action of a type which mediates improved bronchodilator activity
inhibition in vivo at 25 mg/kg [1, 7]: 29%

O=C1c2[nH]cnc2N(Cc2ccccc2)C2=NCCN12 [Procedure 23]
PCA, inactive at dose ([1]; oral dose 25 mg./kg.): I

S=C1c2[nH]cnc2N(Cc2ccc(Cl)cc2)C2=NCCN12 [Procedure 75]
Methacholine Bronchospasm, percent inhibition [2]: 21%
PCA, inactive at dose ([1]; oral dose 25 mg./kg.): I

CCCCCCCCN1C2=NCCN2C(=O)c2[nH]cnc21 [Procedure 54]
PCA, inactive at dose ([1]; oral dose 25 mg./kg.): I

O=C1c2[nH]cnc2N(Cc2ccccc2Cl)C2=NCCN12 [Procedure 6]
inhibition in vivo at 50 mg/kg [1, 8]: 25%

O=C1c2[nH]c(Br)nc2N(Cc2ccc(Cl)cc2)C2=NCCN12 [Procedure 17]
inhibition in vivo at 25 mg/kg [1, 7]: 34%

O=C1c2[nH]cnc2N(Cc2ccc(Cl)c(Cl)c2)C2=NCCN12 [Procedure 7]
PCA, inactive at dose ([1]; oral dose 25 mg./kg.): I

O=C1c2[nH]nnc2N(Cc2ccc(F)cc2)C2=NCCN12 [Procedure 27]
inhibition in vivo at 10 mg/kg [2]: 30%
ED50 [1]: 17.7 mg/kg

CC1N=C2N(Cc3ccc(Cl)cc3)c3nc[nH]c3C(=O)N2C1C (stereo not drawn) [106(cis)]
Methacholine Bronchospasm, ED50 [2]: 3.0 mg/kg
PCA, ED50 [1]: 28.5 mg/kg

Cc1nc2c(n1C)C(=O)N1CCN=C1N2Cc1ccc(Cl)cc1 [Procedure 117]
ED50 [2]: 5.7 mg/kg

N=C1c2[nH]cnc2N(Cc2ccc(Cl)cc2)C2=NCCN12 [Procedure 77]
Methacholine Bronchospasm, percent inhibition [2]: 22%

CCCCCCCCN1C2=NCCN2C(=O)c2[nH]c(C)nc21 [Procedure 55]
inhibition in vivo at 25 mg/kg [1, 7]: 34.9%

CCCCCCCCN1C2=NCCN2C(=O)c2[nH]c(C(C)C)nc21 [Procedure 56]
inhibition in vivo at 25 mg/kg [1, 7]: 25%

CC1CN2C(=O)c3[nH]cnc3N(Cc3ccc(Cl)cc3)C2=N1 (racemic) [Procedure 100]
Methacholine Bronchospasm, ED50 [2]: 2.1 mg/kg
Allergic Bronchospasm, ED50 [4]: 1.5 mg/kg
PCA, ED50 [1]: 10.6 mg/kg

O=C1c2c(ncn2Cc2ccc(F)cc2)N(Cc2ccc(F)cc2)C2=NCCN12 [Procedure 44]
inhibition in vivo at 10 mg/kg [2]: 0%
PCA, inactive at dose ([1]; oral dose 10 mg./kg.): I

CC1(C)CN2C(=O)c3nc[nH]c3N(Cc3ccc(Cl)cc3)C2=N1 [Procedure 104]
ED50 [2]: 6.3 mg/kg
ED50 [4]: 3 mg/kg
anti-allergy and bronchodilator action relative to aminophylline [5]: more potent than aminophylline in anti-allergy and bronchodilator action
ED50 [1]: 42.8 mg/kg

Cc1nc2c([nH]1)C(=O)N1CCN=C1N2Cc1ccc(Cl)cc1 [Procedure 15]
ED50 [2]: 1.79 mg/kg
inhibition in vivo at 30 mg/kg ([1]; oral dose 30 mg./kg., read-out: PCA, percent inhibition): 40%

O=C1c2[nH]nnc2N(CCOc2ccccc2)C2=NCCN12 [Procedure 74]
Methacholine Bronchospasm, inactive at dose [2]: I
PCA, inactive at dose ([1]; oral dose 25 mg./kg.): I

Cn1c(=O)c2[nH]cnc2n(C)c1=O [Theophylline, reference compound]
ED50 [2]: 19.2 mg/kg
ED50 [1]: 41.5 mg/kg

O=C1c2[nH]nnc2N(Cc2ccc(Cl)c(Cl)c2)C2=NCCN12 [Procedure 28]
PCA, inactive at dose ([1]; oral dose 10 mg./kg.): I

CC1CN2C(=O)c3c(ncn3C)N(Cc3ccc(Cl)cc3)C2=N1 (racemic) [Procedure 102]
Methacholine Bronchospasm, ED50 [2]: 1.1 mg/kg
Allergic Bronchospasm, ED50 [4]: 3.4 mg/kg
PCA, ED50 [1]: 28.9 mg/kg

O=C1c2[nH]cnc2N(CCOc2ccc(Cl)cc2)C2=NCCN12 [Procedure 57]
inhibition in vivo at 10 mg/kg [2]: 66%
inhibition in vivo at 25 mg/kg [1, 7]: 31.7%

O=C1c2[nH]cnc2N(Cc2ccccn2)C2=NCCN12 [Procedure 10]
inhibition in vivo at 25 mg/kg [1, 7]: 40%

O=C1c2[nH]cnc2N(CCCc2ccccc2)C2=NCCN12 [Procedure 62]
inhibition in vivo at 10 mg/kg [2]: 22%
PCA, inactive at dose ([1]; oral dose 25 mg./kg.): I

CC1N=C2N(Cc3ccc(Cl)cc3)c3nc[nH]c3C(=O)N2C1C (mixture of isomers) [106(mixed)]
Methacholine Bronchospasm, ED50 [2]: 3.7 mg/kg
Allergic Bronchospasm, ED50 [4]: 3.51 mg/kg
PCA, ED50 [1]: 20.3 mg/kg

Cc1nc2c([nH]1)C(=O)N1CC(C)N=C1N2Cc1ccc(Cl)cc1 (racemic) [Procedure 101]
Methacholine Bronchospasm, ED50 [2]: 1.00 mg/kg
Allergic Bronchospasm, ED50 [4]: 1.2 mg/kg
PCA, ED50 [1]: 30.2 mg/kg

CC(C)CN1C2=NCCN2C(=O)c2[nH]cnc21 [Procedure 13]
inhibition in vivo at 10 mg/kg [2]: 63%
PCA, inactive at dose ([1]; oral dose 25 mg./kg.): I

O=c1c2[nH]cnc2n(Cc2ccc(Cl)cc2)c2nccn12 [Procedure 124]
Methacholine Bronchospasm, ED50 [2]: 8.1 mg/kg

O=C1c2[nH]cnc2N(CC2CCCCC2)C2=NCCN12 [Procedure 59]
inhibition in vivo at 10 mg/kg [2]: 45.8%
inhibition in vivo at 25 mg/kg [1, 7]: 29%

Cn1c(Br)nc2c1C(=O)N1CCN=C1N2Cc1ccc(Cl)cc1 [Procedure 46]
ED50 [2]: > 30 mg/kg

COc1ccc(CCN2C3=NCCN3C(=O)c3[nH]nnc32)cc1OC [Procedure 26]
inhibition in vivo at 10 mg/kg [1, 9]: 41%

CCCCn1cnc2c1C(=O)N1CCN=C1N2Cc1ccc(Cl)cc1 [Procedure 24]
inhibition in vivo at 10 mg/kg [2]: 16%
PCA, inactive at dose ([1]; oral dose 10 mg./kg.): I

COc1ccccc1CN1C2=NCCN2C(=O)c2[nH]cnc21 [Procedure 9]
PCA, inactive at dose ([1]; oral dose 10 mg./kg.): I

CC(C)c1nc2c([nH]1)C(=O)N1CCN=C1N2CCOc1ccccc1 [Procedure 108]
ED50 [2]: 4 mg/kg

O=C1c2[nH]cnc2N(Cc2cccc(Cl)c2)C2=NCCN12 [Procedure 5]
inhibition in vivo at 10 mg/kg [2]: 64%
inhibition in vivo at 50 mg/kg [1, 8]: 43%

CC(C)CN1C2=NC(C)CN2C(=O)c2[nH]cnc21 (stereo not shown) [Procedure 109]
ED50 [2]: 4.6 mg/kg

O=C1c2[nH]cnc2N(CCc2ccc(Cl)cc2)C2=NCCN12 [Procedure 60]
Methacholine Bronchospasm, inactive at dose [2]: I
PCA, inactive at dose ([1]; oral dose 25 mg./kg.): I

O=C1c2[nH]cnc2N(Cc2ccc(Cl)cc2)C2=NCCN12 [Procedure 3]
MTD [6]: ~250 mg/kg
ED50 [2]: 5.2 mg/kg
ED50 [4]: 2.9 mg/kg
ED50 [1]: 33.7 mg/kg

COc1ccc(CCN2C3=NCCN3C(=O)c3[nH]cnc32)cc1OC [Procedure 11]
inhibition in vivo at 10 mg/kg [1, 9]: 25%

CC(C)CN1C2=NCCN2C(=O)c2c1ncn2CCOc1ccccc1 [Procedure 39]
inhibition in vivo at 10 mg/kg [2]: 34.7%
PCA, inactive at dose ([1]; oral dose 25 mg./kg.): I

Cc1nc2c([nH]1)C(=O)N1CCN=C1N2CC(C)C [Procedure 63]
ED50 [2]: 3.3 mg/kg
ED50 [4]: 5.4 mg/kg
ED50 [1]: 33.9 mg/kg

CC1N=C2N(Cc3ccc(Cl)cc3)c3nc[nH]c3C(=O)N2C1C (stereo not drawn) [106(trans)]
Methacholine Bronchospasm, ED50 [2]: 5.0 mg/kg
PCA, ED50 [1]: 35.5 mg/kg

O=C1c2[nH]nnc2N(Cc2ccc(Cl)cc2)C2=NCCN12 [Procedure 25]
PCA, inactive at dose ([1]; oral dose 10 mg./kg.): I

O=C1c2[nH]cnc2N(Cc2ccc(F)cc2)C2=NCCN12 [Procedure 8]
inhibition in vivo at 10 mg/kg [2]: 55.5%
inhibition in vivo at 10 mg/kg [1, 9]: 29%
